# Experimental data reported in PubChem BioAssay (NCI).
#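 Five compound concentrations were applied to cells in 96-well plates for 48 hours; endpoints were derived by simple linear interpolation of the resulting dose-response curve. TGI: concentration producing complete growth inhibition.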
# What was measured:
# Assay in all cases: NCI-60 cell line screen, 48 h
# HT29 colon = system: HT29 colon
# K-562 leukemia = system: K-562 leukemia
# KM12 colon = system: KM12 colon
# M14 melanoma = system: M14 melanoma
# MDA-N = system: MDA-N
# SK-MEL-2 melanoma = system: SK-MEL-2 melanoma
# SN12C renal = system: SN12C renal
# SNB-19 CNS = system: SNB-19 CNS
# SNB-75 CNS = system: SNB-75 CNS
# SW-620 colon = system: SW-620 colon
# U251 CNS = system: U251 CNS
# ACHN renal = system: ACHN renal
# HOP-92 NSCLC = system: HOP-92 NSCLC
smiles,measurement,setting,value
COc1cc(Cn2c3c(c4cc(O)ccc42)Cc2ccccc2C3=O)cc(OC)c1,TGI,HT29 colon,> 100 µM
same,TGI,K-562 leukemia,> 100 µM
same,TGI,KM12 colon,> 100 µM
same,TGI,M14 melanoma,> 100 µM
same,TGI,MDA-N,> 100 µM
same,TGI,SK-MEL-2 melanoma,> 100 µM
same,TGI,SN12C renal,57.3 µM
same,TGI,SNB-19 CNS,> 100 µM
same,TGI,SNB-75 CNS,58.5 µM
same,TGI,SW-620 colon,> 100 µM
same,TGI,U251 CNS,> 100 µM
COc1cc(/C=C2\C(=O)N(c3ccccc3)C(c3ccccc3)S2(=O)=O)cc(OC)c1OC (centres undefined),TGI,ACHN renal,> 100 µM
same,TGI,HOP-92 NSCLC,> 100 µM
same,TGI,HT29 colon,94.1 µM
same,TGI,K-562 leukemia,> 100 µM
same,TGI,KM12 colon,> 100 µM
same,TGI,M14 melanoma,> 100 µM
same,TGI,MDA-N,48.3 µM
same,TGI,SK-MEL-2 melanoma,> 100 µM
same,TGI,SN12C renal,> 100 µM
same,TGI,SNB-19 CNS,> 100 µM
same,TGI,SW-620 colon,> 100 µM
same,TGI,U251 CNS,> 100 µM
NC(N)=N/N=C/c1c[nH]c2ccccc12,TGI,ACHN renal,> 100 µM
same,TGI,HT29 colon,> 100 µM
same,TGI,K-562 leukemia,> 100 µM
same,TGI,KM12 colon,> 100 µM
same,TGI,M14 melanoma,> 100 µM
same,TGI,SK-MEL-2 melanoma,> 100 µM
same,TGI,SN12C renal,> 100 µM
same,TGI,SNB-19 CNS,> 100 µM
same,TGI,SNB-75 CNS,> 100 µM
same,TGI,SW-620 colon,> 100 µM
same,TGI,U251 CNS,> 100 µM
O=Cc1c(C(=O)O)[nH]c(=O)[nH]c1=O,TGI,ACHN renal,> 100 µM
same,TGI,HT29 colon,> 100 µM
same,TGI,K-562 leukemia,> 100 µM
same,TGI,KM12 colon,> 100 µM
same,TGI,M14 melanoma,> 100 µM
same,TGI,MDA-N,> 100 µM
same,TGI,SK-MEL-2 melanoma,> 100 µM
same,TGI,SN12C renal,> 100 µM
same,TGI,SNB-19 CNS,> 100 µM
same,TGI,SNB-75 CNS,> 100 µM
same,TGI,SW-620 colon,> 100 µM
same,TGI,U251 CNS,> 100 µM
CCOP(C)(=O)C(N)Cc1ccc(OC)c(OC)c1 (centres undefined),TGI,ACHN renal,> 100 µM
same,TGI,HOP-92 NSCLC,> 100 µM
same,TGI,HT29 colon,> 100 µM
same,TGI,K-562 leukemia,> 100 µM
same,TGI,M14 melanoma,> 100 µM
same,TGI,MDA-N,> 100 µM
same,TGI,SN12C renal,> 100 µM
same,TGI,SNB-19 CNS,> 100 µM
same,TGI,SNB-75 CNS,> 100 µM
same,TGI,SW-620 colon,> 100 µM
same,TGI,U251 CNS,> 100 µM
COc1cccc(-c2ccc3c4c2O[C@H]2C(=O)CC[C@@]5(O)[C@@H](C3)N(CC3CC3)CC[C@]425)c1,TGI,ACHN renal,35.9 µM
same,TGI,HOP-92 NSCLC,38.4 µM
same,TGI,HT29 colon,24.6 µM
same,TGI,K-562 leukemia,28.6 µM
same,TGI,KM12 colon,31.7 µM
same,TGI,M14 melanoma,28.1 µM
same,TGI,MDA-N,39.3 µM
same,TGI,SK-MEL-2 melanoma,34.1 µM
same,TGI,SN12C renal,41.4 µM
same,TGI,SNB-19 CNS,42.2 µM
same,TGI,SW-620 colon,29.2 µM
same,TGI,U251 CNS,29.9 µM
Cn1cc(NC(=O)c2cc(NC(=O)CN=C(N)N)cn2C)cc1C(=O)NCCC(=N)N,TGI,ACHN renal,> 100 µM
same,TGI,HOP-92 NSCLC,> 100 µM
same,TGI,HT29 colon,> 100 µM
same,TGI,K-562 leukemia,> 100 µM
same,TGI,KM12 colon,> 100 µM
same,TGI,M14 melanoma,> 100 µM
same,TGI,MDA-N,> 100 µM
same,TGI,SK-MEL-2 melanoma,> 100 µM
same,TGI,SN12C renal,> 100 µM
same,TGI,SNB-19 CNS,> 100 µM
same,TGI,SW-620 colon,> 100 µM
same,TGI,U251 CNS,> 100 µM
O=C1CCC(c2ccc(Cl)cc2)=NN1c1nsc2ccccc12,TGI,ACHN renal,> 100 µM
same,TGI,HOP-92 NSCLC,71.2 µM
same,TGI,HT29 colon,> 100 µM
same,TGI,K-562 leukemia,68 µM
same,TGI,KM12 colon,> 100 µM
same,TGI,SK-MEL-2 melanoma,38.7 µM
same,TGI,SN12C renal,67.3 µM
same,TGI,SNB-19 CNS,> 100 µM
same,TGI,SNB-75 CNS,56 µM
same,TGI,SW-620 colon,> 100 µM
same,TGI,U251 CNS,> 100 µM
COc1ccc(C(=C(Cl)c2ccccc2)c2ccc(OC)cc2)cc1,TGI,ACHN renal,> 100 µM
same,TGI,HOP-92 NSCLC,> 100 µM
same,TGI,HT29 colon,> 100 µM
same,TGI,K-562 leukemia,> 100 µM
same,TGI,KM12 colon,> 100 µM
same,TGI,M14 melanoma,> 100 µM
same,TGI,MDA-N,> 100 µM
same,TGI,SK-MEL-2 melanoma,> 100 µM
same,TGI,SN12C renal,> 100 µM
same,TGI,SNB-19 CNS,> 100 µM
same,TGI,SW-620 colon,> 100 µM
same,TGI,U251 CNS,> 100 µM
